The text below walks through data of patent US20260217646A1, “SPERMINE DERIVATIVE AND THERAPEUTIC USE THEREOF FOR DISEASES” (Institute of Basic Medical Sciences, Chinese Academy of …, priority 2022, published 2026).

Assay [1] has as its system JAK-STAT signaling pathway (IL-2 mediated). Put plainly: Western blot of signaling pathway activation in mouse spleen cells stimulated with IL-2. Type of assay: cell-based. Conditions: 10 μM SD1 pretreatment 3 hours, IL-2 10 ng/ml for different time periods, Western blot (FIG. 2B). The procedure:
Mouse spleen single cells were isolated from spleens of the male mice 6-8 weeks old, and the cells freshly obtained were cultured in RPMI1640 medium containing 10% FBS, non-essential amino acids, and β-mercaptoethanol. The cells were pretreated with 10 μM SD1 for 3 hours. For the control group cells (at a dose of 0), an equal volume of DMSO was added to the medium. Subsequently, the cells were stimulated with 10 ng/ml recombinant mouse interleukin-2 (IL-2) for different time periods. The cells were collected, total cellular proteins were extracted, and the activation of the type I interferon signaling pathway was detected using Western blot (FIG. 2B).
In general terms: In western blotting, separated proteins are transferred to a membrane and probed.

Assay [2] has as its system NFAT. Put plainly: Jurkat-Lucia NFAT reporter gene assay. Type of assay: cell-based, human. Conditions: Jurkat-Lucia NFAT cells; 10 μM SD1 pretreatment 3 hours; PMA 50 ng/ml and ionomycin 300 ng/ml for 24 hours (FIG. 4B). The procedure:
Jurkat-Lucia NFAT reporter cell line was purchased from invivogen and cultured in RPMI1640 medium containing 10% FBS. The cells were pretreated with 10 μM SD1 for 3 hours. For the control group cells (at a dose of 0), an equal volume of DMSO was added to the medium. Subsequently, PMA (50 ng/ml) and ionomycin (300 ng/ml) were used to stimulate for 24 hours. The cell culture supernatant was obtained. Meanwhile, the luciferase substrate powder was dissolved in 25 ml of deionized water under dark conditions, aliquoted and stored at −80° C. for the preparation of the luciferase substrate. 20 μl of the culture supernatant was transferred to a Luciferase specific 96-well ELISA plate, and detected using Thermo VARIOSKAN FLASH microplate-reader (FIG. 4B).
(Reporter assays use an easily measured gene product as a stand-in for the process of interest.)

Assay [3] relates to interferon-stimulated genes (ISGs) Ifit1 and Mx1. Kind of assay: qPCR of interferon-stimulated gene mRNAs in mouse primary peritoneal macrophages after mIFN-β stimulation. Type of assay: cell-based. The following applies: 10 μM SD1 pretreatment 3 hours, mIFN-β 500 μg/ml for 3 hours, qPCR (FIG. 1B). As to the method:
2 ml of 3% mercaptoacetate (dissolved in double distilled water at a ratio in % by m/v, and then subjected to high-pressure sterilization treatment) was injected into C57BL/6 mice (6-8 weeks old, male) intraperitoneally. After 3 days, mouse primary peritoneal macrophages (PMs) were isolated from the C57BL/6 mice and cultured in endotoxin-free high-glucose DMEM medium containing 10% FBS.
The next day, the medium was replaced by fresh complete medium, and the cells were pretreated with 10 μM SD1 for 3 hours. For the control group cells (at a dose of 0), an equal volume of DMSO was added to the medium. Afterwards, the cells were stimulated with mIFN-β (at a dose of 500 μg/ml) for 3 hours, and RNAs were subsequently extracted for reverse transcription. The contents of mRNAs (including Ifit1 and Mx1) of interferon-stimulated genes (ISGs) were detected and analyzed by fluorescence quantitative PCR (qPCR) method using commercial primers and conditions recommended by manufacturers (FIG. 1B).
In general terms: In qPCR the cycle at which signal appears reflects the starting amount.

Assay [4] concerns Human T-lymphocytic leukemia Jurkat cells (IL-2 secretion). Put plainly: IL-2 ELISA in PMA/ionomycin-activated Jurkat cells. Type of assay: cell-based. Conditions: 10 μM SD1 pretreatment 3 hours; PMA 50 ng/ml and ionomycin for 24 hours; ELISA (FIG. 4A). As to the method: Human T-lymphocytic leukemia Jurkat cells were cultured in RPMI1640 medium containing 10% FBS. The cells were pretreated with SD1 at a dose of 10 μM for 3 hours. For the control group cells (at a dose of 0), an equal volume of DMSO was added to the medium. Subsequently, the cells were continued to be stimulated with phorbol ester (PMA, 50 ng/ml) and ionomycin ([…]) for 24 hours. The cell culture supernatant was collected, and the level of IL-2 was detected using enzyme linked immunosorbent assay (ELISA) (FIG. 4A).

Assay [5] concerns ISG promoter in RAW264.7 cells. Kind of assay: ISG promoter-reporter (luciferase) assay in RAW264.7 cells under mIFN-β stimulation. Type of assay: cell-based, mouse. The following applies: 10 μM SD1 pretreatment 3 hours; mIFN-β 1 ng/ml for 7 hours; luciferase in supernatant (FIG. 1A). As to the method:
The RAW264.7 cell line with ISG promoter-reporter gene was purchased from Invivogen and cultured in DMEM containing 10% fetal bovine serum (FBS). The cells were pretreated with 10 μM SD1 for 3 hours. A concentrated solution of the above-mentioned SD1 was freshly formulated in DMSO at a concentration of 20 mM before each use, and subsequently diluted as needed. Afterwards, the cells were stimulated with recombinant mouse interferon-beta (mIFN-β) at a dose of 1 ng/ml for 7 hours, and the cell culture supernatant was obtained. Meanwhile, the luciferase substrate powder was dissolved in 25 ml of deionized water under dark conditions, aliquoted, and stored at −80° C. for preparation of the luciferase substrate. 20 μl of the culture supernatant was transferred to a Luciferase specific 96-well ELISA plate, and detected using Thermo VARIOSKAN FLASH microplate-reader (FIG. 1A).

The subject of assay [6] is JAK-STAT signaling pathway (IFN-β mediated). Kind of assay: Western blot of type I interferon signaling pathway activation in mouse primary peritoneal macrophages stimulated with mIFN-β. Type of assay: cell-based. The following applies: 10 μM SD1 pretreatment 3 hours, mIFN-β 500 μg/ml for different time periods, Western blot (FIG. 2A). The procedure:
PMs were obtained using the method as described in Example 2 and cultured in endotoxin-free high-glucose DMEM medium containing 10% FBS. The cells were pretreated with 10 μM SD1 for 3 hours. For the control group cells (at a dose of 0), an equal volume of DMSO was added to the medium. Afterwards, the cells were stimulated with mIFN-β (at a dose of 500 μg/ml) for different time periods. Subsequently, total cellular proteins were extracted, and the activation of the type I interferon signaling pathway was detected using Western blot (FIG. 2A).

Assay [7] relates to ISG genes in peripheral blood cells of SLE model mice. Put plainly: ISG expression in peripheral blood cells of pristane-induced SLE model mice. Type of assay: in vivo, mouse. Conditions: C57 female mice; SD1 10 mg/kg intraperitoneal once a day for 5 days before pristane; blood on days 4 and 6 (FIG. 3A to 3C). The source says: Lupus-like symptoms similar to those in human patients were induced in mice by the hydrocarbon compound pristane (also referred as norphytane, 2,6,10,14-tetramethylpentadecane) (Zhuang et al., Animal Models of Interferon Signature Positive Lupus. Front Immunol. 2015. 6: p. 291; Nacionales, D. C et al. (2006). Type I interferon production by tertiary lymphoid tissue developing in response to 2,6,10,14-tetramethyl-pentadecane (pristane). The American journal of pathology 168, 1227-1240; Reeves, W. H et al. (2009). Induction of autoimmunity by pristane and other naturally occurring hydrocarbons. Trends Immunol. 30, 455-464). […] It is a recognized model that is able to simulate the overexpression of type I interferon in SLE patients, which can aid in elucidating the pathogenesis of SLE and finding therapeutic targets.
Firstly, C57 female mice were pretreated by intraperitoneal injection of PBS and SD1 (10 mg/kg, once a day, for 5 consecutive days). Subsequently, SLE mice were induced by intraperitoneal injection of pristane (500 μl/mouse). On days 4 and 6 after the injection of pristane, blood was collected from the eye-fundus vascular plexus, and total RNA was obtained from the peripheral blood by using Trizol to detect the effect of spermine on the early type I interferon effect of pristane-induced mice.

For `CC(C(=O)NCCCNCCCCNCCCNC(=O)C(C)(c1ccccc1)c1ccccc1)(c1ccccc1)c1ccccc1` [SD1], in assay [1], the “activation of the JAK-STAT signaling pathway mediated by IL-2 (levels of p-JAK1, p-TYK2, p-STAT1/2)” value is “effectively inhibit”. Also, the “transcriptional activity of NFAT (reporter gene activity)” value in assay [2] is on record as “effectively inhibits”. Further, in assay [3], the “expression of Ifit1 mRNA downstream of type I interferon” value is “reduce” and the “expression of Mx1 mRNA downstream of type I interferon” value is reported as “reduce”. For the same compound, the “IL-2 secretion level of activated Jurkat cells” value in assay [4] is reported as “effectively inhibit”. The “activity of ISG promoter in RAW264.7 cells” value in assay [5] was “effectively inhibit”. The “activation of the JAK-STAT signaling pathway mediated by IFN-β (levels of p-JAK1, p-TYK2, p-STAT1/2)” value in assay [6] is “effectively inhibit”. Also, the “ISG expression (Ifit1, Isg15, Rsad2) in peripheral blood cells of SLE model mice” value in assay [7] is “inhibit”.
